Test results: ChEMBL document CHEMBL5325462, “Regioselective synthesis and in vitro cytotoxicity evaluation of 3-thiooxindole derivatives: Tubulin polymerization inhibition and apoptosis inducing studies” (Bioorg Med Chem, 2023)
Calls of active or inactive are those of the source. The calls are words filed in the database; no cut-off is given here.

Experiments:
HCT-116 [1] = test: Cytotoxicity against human HCT-116 cells assessed as inhibition of cell growth measured after 72 hrs by MTT assay; format: functional, cell-based; conditions: HCT-116, 72 h
BT-474 = test: Cytotoxicity against human BT-474 cells assessed as inhibition of cell growth measured after 72 hrs by MTT assay; format: functional, cell-based; conditions: BT-474, 72 h
SK-MEL-28 = test: Cytotoxicity against human SK-MEL-28 cells assessed as inhibition of cell growth measured after 72 hrs by MTT assay; format: functional, cell-based; conditions: SK-MEL-28, 72 h
MCF7 = test: Cytotoxicity against human MCF7 cells assessed as inhibition of cell growth measured after 72 hrs by MTT assay; format: functional, cell-based; conditions: MCF7, 72 h
A549 = test: Cytotoxicity against human A549 cells assessed as inhibition of cell growth measured after 72 hrs by MTT assay; format: functional, cell-based; conditions: A549, 72 h
[2] = Cytotoxicity against rat NRK cells assessed as inhibition of cell growth measured after 72 hrs by MTT assay; format: toxicity, cell-based
HCT-116 [3] = test: Induction of nuclear morphological changes in human HCT-116 cells assessed as change in nuclear condensation measured after 48 hrs by DAPI-staining based fluorescence microscopic analysis; format: functional, cell-based
HCT-116 [4] = test: Induction of nuclear morphological changes in human HCT-116 cells assessed as change in nuclear shape measured after 48 hrs by DAPI-staining based fluorescence microscopic analysis; format: functional, cell-based
HCT-116 [5] = test: Induction of apoptosis in human HCT-116 cells assessed as reduction in cell viability at 3.36 to 13.46 uM measured after 48 hrs by phase contrast microscope; format: functional, cell-based; conditions: dose 3.36-13.46 µM
HCT-116 [6] = test: Induction of morphological changes in human HCT-116 cells assessed as formation of necrotic bodies incubated for 24 hrs by acridine orange/ethidium bromide staining based fluorescence microscopic analysis; format: functional, cell-based
HCT-116 [7] = test: Induction of morphological changes in human HCT-116 cells assessed as cell nucleus shrinkage at 3.36 to 13.46 uM measured after 48 hrs by phase contrast microscope; format: functional, cell-based; conditions: dose 3.36-13.46 µM
HCT-116 [8] = test: Induction of morphological changes in human HCT-116 cells assessed as formation of apoptotic bodies incubated for 24 hrs by acridine orange/ethidium bromide staining based fluorescence microscopic analysis; format: functional, cell-based
HCT-116 [9] = test: Induction of ROS production in human HCT-116 cells at 3.36 uM incubated for 72 hrs by DCFDA staining based fluorescence microscopic analysis; format: functional, cell-based
HCT-116 [10] = test: Inhibition of cell invasion in human HCT-116 cells at 3.36 to 13.46 uM measured after 48 hrs by phase contrast microscopic analysis; format: functional, cell-based; conditions: dose 3.36-13.46 µM
HCT-116 [11] = test: Induction of nuclear morphological changes in human HCT-116 cells assessed as horseshoe shaped nuclei formation measured after 48 hrs by DAPI-staining based fluorescence microscopic analysis; format: functional, cell-based
HCT-116 [12] = test: Induction of morphological changes in human HCT-116 cells assessed as cell detachment at 3.36 to 13.46 uM measured after 48 hrs by phase contrast microscope; format: functional, cell-based; conditions: dose 3.36-13.46 µM

Structure (SMILES)	IC50 (HCT-116 [1]) [µM]	IC50 (BT-474) [µM]	IC50 (SK-MEL-28) [µM]	IC50 (MCF7) [µM]	IC50 (A549) [µM]	IC50 at 72 h [2] [µM]	Activity (HCT-116 [3])	Activity (HCT-116 [4])	Activity (HCT-116 [5])	Activity (HCT-116 [6])	Activity (HCT-116 [7])	Activity (HCT-116 [8])	Activity (HCT-116 [9])	inhibition (HCT-116 [10])	Activity (HCT-116 [11])	Activity (HCT-116 [12])
CC(C)(C)S(=O)(=O)NCC1(Sc2nnc(-c3ccc(Cl)c(Cl)c3)o2)C(=O)N(Cc2ccc(Br)cc2)c2ccccc21 (stereo unspecified)	> 50	15.3	13.7	> 50	41.7	21.9	–	–	–	–	–	–	–	–	–	–
CC(C)(C)S(=O)(=O)NCC1(Sc2nc3ccccc3[nH]2)C(=O)N(Cc2ccccc2)c2ccccc21 (stereo unspecified)	43.1	15.2	22.3	> 50	31.2	17.9	–	–	–	–	–	–	–	–	–	–
CC(C)(C)S(=O)(=O)NCC1(Sc2nnc(-c3cccc(Br)c3)o2)C(=O)N(Cc2ccccc2)c2ccccc21 (stereo unspecified)	12.1	12.7	12.6	12.8	12.1	14.1	–	–	–	–	–	–	–	–	–	–
O=c1[nH]cc(F)c(=O)[nH]1 [FLUOROURACIL]	16.6	–	–	24.8	25.4	–	–	–	–	–	–	–	–	–	–	–
CC(C)(C)S(=O)(=O)NCC1(Sc2nnc(-c3ccc(Cl)cc3)n2-c2ccccc2)C(=O)N(Cc2ccccc2)c2ccccc21 (stereo unspecified)	> 50	16	> 50	45	> 50	24.8	–	–	–	–	–	–	–	–	–	–
CC(C)(C)S(=O)(=O)NCC1(Sc2nnc(-c3ccccc3)o2)C(=O)N(Cc2ccccc2)c2ccccc21 (stereo unspecified)	15.4	14.5	17.7	15.5	14.2	31.9	–	–	–	–	–	–	–	–	–	–
Cc1ccc(CN2C(=O)C(CNS(=O)(=O)C(C)(C)C)(Sc3nc4ccccc4[nH]3)c3ccccc32)cc1 (stereo unspecified)	8.96	13.3	33.6	13.9	13.2	21.8	–	–	–	–	–	–	–	–	–	–
COc1cccc(-c2nnc(SC3(CNS(=O)(=O)C(C)(C)C)C(=O)N(Cc4ccccc4)c4ccccc43)o2)c1 (stereo unspecified)	> 50	14	15.3	> 50	30.7	22.9	–	–	–	–	–	–	–	–	–	–
COc1cccc(-c2nnc(SC3(CNS(=O)(=O)C(C)(C)C)C(=O)N(Cc4ccc(Br)cc4)c4ccccc43)n2-c2ccccc2)c1 (stereo unspecified)	> 50	13.8	26.1	35.8	> 50	21.8	–	–	–	–	–	–	–	–	–	–
Cc1ccc2c(c1)C(CNS(=O)(=O)C(C)(C)C)(Sc1nc3ccccc3s1)C(=O)N2C (stereo unspecified)	8.99	13.2	23.6	17.2	18.2	26.8	–	–	–	–	–	–	–	–	–	–
Cc1ccc(CN2C(=O)C(CNS(=O)(=O)C(C)(C)C)(Sc3nnc(-c4ccccc4)o3)c3ccccc32)cc1 (stereo unspecified)	6.73	12.3	17.1	13.9	14.2	18	Dose-Dependent Effect	Dose-Dependent Effect	Active	Active	Active	Dose-Dependent Effect	Active	Active	Dose-Dependent Effect	Active
CC(C)(C)S(=O)(=O)NCC1(Sc2nnc(-c3ccccc3)o2)C(=O)N(Cc2ccccc2)c2ccc(F)cc21 (stereo unspecified)	> 50	16.7	30.4	40.4	37.8	33.3	–	–	–	–	–	–	–	–	–	–
Cc1ccc2c(c1)C(CNS(=O)(=O)C(C)(C)C)(Sc1nnc(-c3ccccc3)o1)C(=O)N2Cc1ccccc1 (stereo unspecified)	> 50	23.6	15.6	34.3	> 50	12.7	–	–	–	–	–	–	–	–	–	–
CN1C(=O)C(CNS(=O)(=O)C(C)(C)C)(Sc2nc3ccccc3[nH]2)c2cc(Br)ccc21 (stereo unspecified)	12.3	13.1	16.8	12.8	18.2	25.7	–	–	–	–	–	–	–	–	–	–
